Here are results for 27 compounds from patent US20250115569A1, “SULFONAMIDE COMPOUNDS FOR THE TREATMENT OF NEUROLOGICAL CONDITIONS” (LARIO THERAPEUTICS LIMITED, priority 2021, published 2025).

This test deals with Human Cav2.3 channel. The experiment in a line: Human Cav2.3 channel calcium-influx assay. The conditions noted are these: Fluo8 fluorescence, HEK-293 T-Rex/Kir2.1/Cav2.3e cells, without pluronic acid. The test is classed as cell-based. As for the experimental part: HEK-293 T-Rex cells were transfected with pcDNA3.1-Kir2.1 to generate a stable cell line. After antibiotic selection, the obtained stable pools were analysed using FLIPR^TETRA (membrane potential assay), and a limiting dilution was performed and a HEK-293 T-Rex/Kir2.1 clone was selected. The clone was transfected with pcDNA3.1-Cav2.3e and pBud-Cav-β4-α2δ1 to generate a stable cell line where the Cav2.3e expression is inducible. After antibiotic selection, functional clone pool analysis and two successive limiting dilutions, the final clone underwent a qPCR analysis and a biophysical and pharmacological validation using patch-clamp.
A compound plate, containing 10 test compounds in eight-points dose response with n=4, was prepared. Test compounds dose response curves were prepared in automated fashion in 100% DMSO at CyBio Felix and starting from a stock solution in 100% DMSO; a defined volume was serially moved into destination wells pre-filled with the desired DMSO volume; stock solution concentration volumes were dependent on the final compounds concentrations to be tested and the final DMSO content used in the assay. For the assay test compounds dose response curves ranged from 30 μM and half log dilution with 0.3% final DMSO. In order to obtain the 8-points dose response curve all the concentrations were created by starting from a 10 mM DMSO stock solution and then moving 9.5 μL into a destination well pre-filled with 20.5 μL of 100% DMSO and repeating this step seven times. This initial step was done into 96 MTP plates, 10 compounds/plate. One 384 MTP was then reformatted to contain all the 10 compounds at 8 concentrations, quadruplicate data points. This so obtained 384 MTP compound plate served as source plate in a “mother to child” process with a CyBi®-Well dispenser in which 0.7 μL of compounds were moved into a destination plate pre-filled with 57.6 μL of Tyrode's buffer 0 mM K+, thus obtaining 4× concentrated compounds solution. In columns 1-2 and 23-24 the control wells were added. Both “source” compound plate and “destination” compound plate were barcoded and a relationship between the two plates was thus generated.
The day before the experiment, cells were detached by gentle wash with DPBS, followed by 5 min incubation at 37° C. with Trypsin solution. Detached cells were diluted with OptiMEM+Doxycycline at 0.2 μg/mL, counted and plated in Poly-D-Lysine coated black/clear bottom (15.000 c/well in 20 μl/well) by the use of a MATRIX WellMate dispenser. Plates were placed into a humidified incubator at 37° C. with 5% CO2 until the experimental day. 24 h after seeding 10 μL/well of 1.5× Fluo8 NW dye solution prepared in Tyrode's buffer 0 mM K* were added on top of the seeding medium. Cell plates were incubated for 40-60 min at RT in the dark. We then Injected off-line 10 μL/well of test compounds and controls 4× concentrated in Tyrode's Buffer 0 mM K+ with the CyBi®-Well instrument. Cell plates were incubated 3 minutes at RT. Finally, we injected 20 μL/well of 3× concentrated activator solution (K20-Na130-Ca2 buffer: 20 mM KCl, 130 mM NaCl, 2 mM CaCl2, 10 mM HEPES, 10 mM Glucose, final concentrations, prepared starting from “K0-Na150-Ca2” and “K150-Na0-Ca2” buffers) at FDSS7000EX instrument and read emitted fluorescence for 130 seconds.
Data analysis was performed with Genedata Screener® software and reported compounds activity as % effect in relation to the normalization standards. The Kinetic Response Value (KRV) is calculated as follows:
KRV=Maximal fluorescence recorded from second 5 to second 130 minus baseline fluorescence, computed as average from second 1 to second 2, of the kinetic trace. The KRV was normalized versus Neutral Controls and Inhibitor Controls in order to obtain the Activity[%] for each well. […] Therefore, the compound activity values were scaled (based on the two references) to a common range (two-point normalization). […]
As to `CCN(C(c1ccc(F)cc1)C(F)(F)F)S(=O)(=O)c1cncnc1` [Example 60, (R)—N-ethyl-N-(2,2,2-trifluoro-1-(4-fluorophenyl)ethyl)pyrimidine-5-sulfonamide], the “Cav2.3 (pIC50)” value was 7.14.

As to `CCN([C@H](c1ccccc1OC)C(F)(F)F)S(=O)(=O)c1cncc(C#N)c1` [Example 109, (R)-5-cyano-N-ethyl-N-(2,2,2-trifluoro-1-(2-methoxyphenyl)ethyl)pyridine-3-sulfonamide], the “Cav2.3 (pIC50)” value was determined as 4.59.

On to `CCN(C(c1cccc(OC)c1)C(F)(F)F)S(=O)(=O)c1cncc(C#N)c1` (stereo not drawn) [Example 71, 5-Cyano-N-ethyl-N-(2,2,2-trifluoro-1-(3-methoxyphenyl)ethyl)pyridine-3-sulfonamide], for which the “Cav2.3 (pIC50)” value turned out to be 6.80.

Consider `CCN(C(c1ccc(F)cc1)C(F)(F)F)S(=O)(=O)c1ccc2c(c1)OCC2` (stereo not drawn) [Example 39, N-ethyl-N-(2,2,2-trifluoro-1-(4-fluorophenyl)ethyl)-2,3-dihydrobenzofuran-6-sulfonamide], for which the “Cav2.3 (pIC50)” value came out at 5.82.

Turning to `CCN([C@@H](c1ccccc1OC)C(F)(F)F)S(=O)(=O)c1cncc(C#N)c1` [Example 108, (S)-5-cyano-N-ethyl-N-(2,2,2-trifluoro-1-(2-methoxyphenyl)ethyl)pyridine-3-sulfonamide], the “Cav2.3 (pIC50)” value worked out at 4.30.

For the compound `CCN([C@H](c1ccc(C(F)(F)F)cc1)C(F)(F)F)S(=O)(=O)c1cnc2cccnn12` [Example 212, (R)—N-ethyl-N-(2,2,2-trifluoro-1-(4-(trifluoromethyl)phenyl)ethyl)imidazo[1,2-b]pyridazine-3-sulfonamide], the “Cav2.3 (pIC50)” value came out at 6.80.

Take `CN([C@H](c1ccc(Cl)cc1)C(F)F)S(=O)(=O)c1cncc(C#N)c1` [Example 206, (R)—N-(1-(4-chlorophenyl)-2,2-difluoroethyl)-5-cyano-N-methylpyridine-3-sulfonamide]: the “Cav2.3 (pIC50)” value came to 6.60.

For `CN([C@@H](CF)c1ccc(Cl)cc1)S(=O)(=O)c1cncc(C#N)c1` [Example 213, (R)—N-(1-(4-chlorophenyl)-2-fluoroethyl)-5-cyano-N-methylpyridine-3-sulfonamide], the “Cav2.3 (pIC50)” value is 6.07.

Consider `COc1ccc(C(N(C)S(=O)(=O)C2CCOCC2)C(F)(F)F)cc1` (stereo not drawn) [Example 125, N-methyl-N-(2,2,2-trifluoro-1-(4-methoxyphenyl)ethyl)tetrahydro-2H-pyran-4-sulfonamide], for which the “Cav2.3 (pIC50)” value came out at 5.37.

For `CCN([C@H](c1ccc(F)cc1)C(F)(F)F)S(=O)(=O)c1cccc(C)n1` [Example 33, (R)—N-ethyl-6-methyl-N-(2,2,2-trifluoro-1-(4-fluorophenyl)ethyl)pyridine-2-sulfonamide], the “Cav2.3 (pIC50)” value is recorded as 6.30.

Take `CCN([C@@H](c1ccc(F)cc1)C(F)(F)F)S(=O)(=O)c1cncc(C#N)c1` [Example 34, (S)-5-cyano-N-ethyl-N-(2,2,2-trifluoro-1-(4-fluorophenyl)ethyl)pyridine-3-sulfonamide]: the “Cav2.3 (pIC50)” value is listed as 6.20.

With `CN(C(c1ccc(C(F)(F)F)c(F)c1)C(F)(F)F)S(=O)(=O)c1cncc(C#N)c1` (stereo not drawn) [Example 255, 5-cyano-N-methyl-N-(2,2,2-trifluoro-1-(3-fluoro-4-(trifluoromethyl)phenyl)ethyl)pyridine-3-sulfonamide], the “Cav2.3 (pIC50)” value turned out to be 6.96.

For `CCN([C@H](c1ccc(F)c(Cl)c1)C(F)(F)F)S(=O)(=O)c1cncc(C#N)c1` [Example 254, (R)—N-(1-(3-chloro-4-fluorophenyl)-2,2,2-trifluoroethyl)-5-cyano-N-ethylpyridine-3-sulfonamide], the “Cav2.3 (pIC50)” value came out at 7.33.

Take `CN([C@@H](c1ccc(F)cc1)C(F)(F)F)S(=O)(=O)c1ccc(C#N)s1` [Example 7, (S)-5-cyano-N-methyl-N-(2,2,2-trifluoro-1-(4-fluorophenyl)ethyl)thiophene-2-sulfonamide]: the “Cav2.3 (pIC50)” value amounted to 5.44.

On to `CN([C@@H](c1ccc(F)cc1)C(F)(F)F)S(=O)(=O)C1CCOCC1` [Example 131, (S)—N-methyl-N-(2,2,2-trifluoro-1-(4-fluorophenyl)ethyl)tetrahydro-2H-pyran-4-sulfonamide], for which the “Cav2.3 (pIC50)” value amounted to 5.12.

With `CCN(C(c1ccc(F)cc1)C(F)(F)F)S(=O)(=O)c1cncc(N2CCOCC2)c1` (stereo not drawn) [Example 93, N-ethyl-5-morpholino-N-(2,2,2-trifluoro-1-(4-fluorophenyl)ethyl)pyridine-3-sulfonamide], the “Cav2.3 (pIC50)” value is 6.53.

Turning to `CCN(C(c1ccc(F)cc1)C(F)(F)F)S(=O)(=O)c1ccc(F)s1` (stereo not drawn) [Example 14, N-ethyl-5-fluoro-N-(2,2,2-trifluoro-1-(4-fluorophenyl)ethyl)thiophene-2-sulfonamide], the “Cav2.3 (pIC50)” value came to 5.64.

As to `CN([C@H](c1ccc(Cl)cc1)C(F)(F)F)S(=O)(=O)c1cnc2ncccn12` [Example 230, (R)—N-(1-(4-chlorophenyl)-2,2,2-trifluoroethyl)-N-methylimidazo[1,2-a]pyrimidine-3-sulfonamide], the “Cav2.3 (pIC50)” value came to 7.00.

Turning to `CCN([C@H](c1ccc(C)cc1)C(F)(F)F)S(=O)(=O)c1cncc(C#N)c1` [Example 106, (R)-5-Cyano-N-ethyl-N-(2,2,2-trifluoro-1-(p-tolyl)ethyl)pyridine-3-sulfonamide], the “Cav2.3 (pIC50)” value is recorded as 7.51.

Regarding `CN(C(c1ccc(F)cc1)C(F)(F)F)S(=O)(=O)c1cncnc1` (stereo not drawn) [Example 58, N-methyl-N-(2,2,2-trifluoro-1-(4-fluorophenyl)ethyl)pyrimidine-5-sulfonamide], the “Cav2.3 (pIC50)” value is reported as 6.35.

Turning to `CCN([C@@H](c1ccc(F)cc1)C(F)(F)F)S(=O)(=O)c1cnc(C)nc1` [Example 76, (S)—N-ethyl-2-methyl-N-(2,2,2-trifluoro-1-(4-fluorophenyl)ethyl)pyrimidine-5-sulfonamide], the “Cav2.3 (pIC50)” value was determined as 5.31.

Take `CCN(C(c1ccc(F)cc1)C(F)(F)F)S(=O)(=O)c1cccc(C#N)n1` (stereo not drawn) [Example 30, 6-cyano-N-ethyl-N-(2,2,2-trifluoro-1-(4-fluorophenyl)ethyl)pyridine-2-sulfonamide]: the “Cav2.3 (pIC50)” value is listed as 6.62.

Regarding `CCN([C@H](c1ccc(F)c(OC)c1)C(F)(F)F)S(=O)(=O)c1cncc(C#N)c1` [Example 259, (R)-5-cyano-N-ethyl-N-(2,2,2-trifluoro-1-(4-fluoro-3-methoxyphenyl)ethyl)pyridine-3-sulfonamide], the “Cav2.3 (pIC50)” value came to 6.61.

Regarding `CCN(C(c1ccc(F)cc1)C(F)(F)F)S(=O)(=O)c1cncc(C#N)c1` (stereo not drawn) [Example 26, 5-cyano-N-ethyl-N-(2,2,2-trifluoro-1-(4-fluorophenyl)ethyl)pyridine-3-sulfonamide], the “Cav2.3 (pIC50)” value is listed as 7.49.

As to `Cc1ncc(S(=O)(=O)N(C)[C@H](c2ccc(F)cc2)C(F)(F)F)cn1` [Example 78, (R)—N,2-dimethyl-N-(2,2,2-trifluoro-1-(4-fluorophenyl)ethyl)pyrimidine-5-sulfonamide], the “Cav2.3 (pIC50)” value is recorded as 5.69.

As to `CCN([C@@H](c1ccc(F)c(C)c1)C(F)(F)F)S(=O)(=O)c1cncc(C#N)c1` [Example 245, (S)-5-cyano-N-ethyl-N-(2,2,2-trifluoro-1-(4-fluoro-3-methylphenyl)ethyl)pyridine-3-sulfonamide], the “Cav2.3 (pIC50)” value is given as 5.70.

As for `CCN(C(c1ccc(F)cc1F)C(F)(F)F)S(=O)(=O)c1cncc(C#N)c1` (stereo not drawn) [Example 244, 5-cyano-N-(1-(2,4-difluorophenyl)-2,2,2-trifluoroethyl)-N-ethylpyridine-3-sulfonamide], the “Cav2.3 (pIC50)” value was found to be 5.84.
